In patent US8450293B2, “Synthesis and characterization of C8 analogs of c-di-GMP” (Rutgers, The State University of New Jersey, priority 2010, dated 2013):

How the values were obtained:
[1] = similar concentrations; Zhang et al. 2004; cited from earlier work
[2] = NMR / 2D DOSY study of metal-dependent complex formation; type: physicochemical; conditions: NMR concentrations (26-31 mM)
Source text: Three larger and three smaller resonances clustered near 6 ppm, from the H1′ were observed. Diffusion coefficients (D, m^2/s×10^−1), obtained from a separate 2D DOSY experiment on the same sample, are indicated in parentheses. […] (Zhang et al., J. Am. Chem. Soc. 2006, 128, 7015-7024; Zhao et al., Nucleosides Nucleotides Nucl. Acids 2009, 28, 352-378) Here, all three larger resonances have D=1.5, indicative of octamolecular complexes. The two farthest downfield of the three smaller resonances have D=1.7, indicative of tetramolecular complexes (the octamolecular having been already identified), and the remaining farthest upfield smaller resonance has D=3.5, indicative of a bimolecular structure. At 5° C., all three smaller resonances nearly disappear, leaving primarily the three larger ones. The octamolecular complexes are expected to be preferentially stabilized at lower temperatures. At 55° C., the three larger resonances all decrease, and only the farthest upfield of the smaller resonances increases, confirming it is the bimolecular structure. The higher order complexes are disrupted at higher temperatures, leaving the bimolecular structure dominant.
All NMR spectra were acquired on a Varian VNMRS 500 MHz spectrometer. Samples were 31 mM of 2, 27 mM of 3, 26 mM of […] of 5, and 26 mM of 6, each in 0.30 mL H2O containing 10% D2O. The pH of all samples was adjusted to 6.8, using either HCl or KOH/NaOH/LiOH, as appropriate. Each sample was heated to 75° C. for 10 minutes, then allowed to cool to room temperature before being transferred to the NMR tube. The ^1H and ^13C NMR spectra were referenced to sodium trimethylsilylpropylsulfonate in D2O, and the ^31P NMR spectra were referenced to 10% phosphoric acid in D2O. The 1D ^1H NMR spectra used frequency pre-saturation for water suppression. The DOSY spectra used a pre-saturation pulse for water suppression. The data were collected using a 2.5 second relaxation delay over an 8000 Hz spectral width, with 16 repetitions over 256 increments and a diffusion delay of 0.1 seconds. For the HMBC experiments, the ^1H spectra were acquired with 16 scans, with acquisition time and relaxation delay of 2 s and 1.5 s, respectively. To suppress water, ^1H pre-saturation was applied during the relaxation delay. The ^13C spectra were acquired with 1024 scans, with acquisition time and relaxation delay of 0.5 s and 1 s, respectively. For NOE enhancement and ^1H decoupling, ^1H WALTZ16 decoupling was applied during the entire experiment. ^1H-^13C HMBC 2D spectra were acquired using 2048 (t2) times 100 (t1) complex points with spectral widths of 8000 Hz (t2) and 10000 Hz (t1) and transformed to spectra with 2048 (D1) times 1024 (D2) real points after two times linear prediction in t1. The number of scans per each t1 increment was 128 and the relaxation delay for each scan was 1.5 s. To suppress water, ^1H pre-saturation was applied during the relaxation delay. The DEPT transfer delay for HMBC was chosen as ^2,3JHC=20 Hz (the multi-bond coupling constant) and ^1JHC (the one-bond coupling constant) was set as 140 Hz to suppress cross peaks contributed from the one-bond ^1H-^13C connectivity.

[3] = Solubility in water (noted when preparing NMR samples); type: physicochemical; conditions: K+ salt sample for NMR; spectra obtained in 1:1 CH3OD:H2O instead
Experimental: Portions of the ^1H NMR spectra of the K^+ salts of 4, 5, and 6 at 25° C. are shown in FIGS. 5B, 5C, and 5D, respectively. […] For 4, 5, and 6, the H1′/amino resonances display nearly identical diffusion constants of 3.7/3.5, 2.4/2.5, and 1.9/2.0, respectively. These resonances become larger at 5° C. and disappear completely at 55° C. In all three cases, ^1H spectra of the Na^+ salts closely resemble those of the K^+ salts.

| Structure (SMILES) | hypochromic effect in UV melt [1] | complex formed (self-association) ([2]; K+ salt) | complex formed (self-association) ([2]; Na+ salt) | solubility in water [3] |
| --- | --- | --- | --- | --- |
| Nc1nc2c(ncn2[C@@H]2O[C@@H]3COP(=O)(O)OC4[C@@H](COP(=O)(O)O[C@@H]3C2O)O[C@@H](n2cnc3c(=O)[nH]c(N)nc32)[C@H]4O)c(=O)[nH]1 (stereo partly shown) [compound 1, cyclic diguanosine monophosphate] | pronounced hypochromism |  |  |  |
| Nc1nc2c(nc(S)n2[C@@H]2O[C@@H]3COP(=O)(O)OC4C(O)[C@H](n5c(=S)[nH]c6c(=O)[nH]c(N)nc65)O[C@@H]4COP(=O)(O)OC3C2O)c(=O)[nH]1 (stereo partly shown) [compound 3, cyclo-8-thioguanosinylyl (3′→5′)-8′-thioguanosinylyl (3′→5′)] |  | primarily a syn bimolecular structure | primarily a syn bimolecular structure |  |
| CSc1nc2c(=O)[nH]c(N)nc2n1[C@@H]1O[C@@H]2COP(=O)(O)OC3C(O)[C@H](n4c(SC)nc5c(=O)[nH]c(N)nc54)O[C@@H]3COP(=O)(O)OC2C1O (stereo partly shown) [compound 4, cyclo-8-methylthioguanosinylyl (3′→5′)-8′-methylthioguanosinylyl (3′→5′)] |  | primarily a syn bimolecular structure | primarily a syn bimolecular structure |  |
| Nc1nc2c(nc(-c3ccccc3)n2[C@@H]2O[C@@H]3COP(=O)(O)OC4C(O)[C@H](n5c(-c6ccccc6)nc6c(=O)[nH]c(N)nc65)O[C@@H]4COP(=O)(O)OC3C2O)c(=O)[nH]1 (stereo partly shown) [compound 5, cyclo-8-phenylguanosinylyl (3′→5′)-8′-phenylguanosinylyl (3′→5′)] |  | primarily a syn bimolecular structure | primarily a syn bimolecular structure |  |
| CC(=O)c1cccc(-c2nc3c(=O)[nH]c(N)nc3n2[C@@H]2O[C@@H]3COP(=O)(O)OC4C(O)[C@H](n5c(-c6cccc(C(C)=O)c6)nc6c(=O)[nH]c(N)nc65)O[C@@H]4COP(=O)(O)OC3C2O)c1 (stereo partly shown) [compound 6, cyclo-8-(3-acetylphenyl)-guanosinylyl(3′→5′)-8′-(3-acetylphenyl)-guanosinylyl(3′→5′)] |  | primarily a syn bimolecular structure | primarily a syn bimolecular structure | not soluble in water |
